Key:
Aspergillus niger [1] = test: Antifungal activity against Aspergillus niger MTCC 8189 after 7 days by tube dilution method; assay type: functional
Bacillus subtilis [2] = test: Bactericidal activity against Bacillus subtilis MTCC 2063; assay type: functional
Aspergillus niger [3] = test: Fungicidal activity against Aspergillus niger MTCC 8189; assay type: functional
Candida albicans [4] = test: Fungicidal activity against Candida albicans MTCC 227; assay type: functional
Escherichia coli [5] = test: Antibacterial activity against Escherichia coli MTCC 1652 after 24 hr by tube dilution method; assay type: functional
Bacillus subtilis [6] = test: Antibacterial activity against Bacillus subtilis MTCC 2063 after 24 hr by tube dilution method; assay type: functional
Staphylococcus aureus [7] = test: Antibacterial activity against Staphylococcus aureus MTCC 2901 after 24 hr by tube dilution method; assay type: functional
Escherichia coli [8] = test: Bactericidal activity against Escherichia coli MTCC 1652; assay type: functional
Candida albicans [9] = test: Antifungal activity against Candida albicans MTCC 227 after 48 hr by tube dilution method; assay type: functional
Staphylococcus aureus [10] = test: Bactericidal activity against Staphylococcus aureus MTCC 2901; assay type: functional
HCT-116 = test: Cytotoxicity against Homo sapiens (human) HCT116 cells after 72 hr by MTT assay; assay type: functional, cell-based; details: HCT-116, 72 h, read-out: pIC50 (converted)
HT-29 = test: Cytotoxicity against Homo sapiens (human) HT-29 cells after 72 hr by MTT assay; assay type: functional, cell-based; details: HT-29, 72 h, read-out: pIC50 (converted)

Row | SMILES | -logMIC (Aspergillus niger [1]) | MBC (Bacillus subtilis [2]) | MFC (Aspergillus niger [3]) | MFC (Candida albicans [4]) | -logMIC (Escherichia coli [5]) | -logMIC (Bacillus subtilis [6]) | -logMIC (Staphylococcus aureus [7]) | MBC (Escherichia coli [8]) | -logMIC (Candida albicans [9]) | MBC (Staphylococcus aureus [10]) | IC50 (HCT-116) | IC50 (HT-29)
1 | COc1cc(/C=N/c2c(C)n(C)n(-c3ccccc3)c2=O)cc(OC)c1OC | 1.48 | >0.13 uM/ml | 0.13 uM/ml | >0.13 uM/ml | 1.48 | 1.48 | 1.48 | >0.13 uM/ml | 1.48 | >0.13 uM/ml |  | 
2 | Cc1c(/N=C/c2ccc(Cl)cc2Cl)c(=O)n(-c2ccccc2)n1C | 1.46 | >0.14 uM/ml | >0.14 uM/ml | >0.14 uM/ml | 1.46 | 1.16 | 1.16 | >0.14 uM/ml | 1.46 | >0.14 uM/ml |  | 
3 | O=c1[nH]cc(F)c(=O)[nH]1 [FLUOROURACIL] |  |  |  |  |  |  |  |  |  |  | 45.7 µM | 85.1 µM
4 | Cc1c(/N=C/c2ccccc2)c(=O)n(-c2ccccc2)n1C | 1.37 | >0.17 uM/ml | >0.17 uM/ml | >0.17 uM/ml | 1.37 | 1.07 | 1.07 | >0.17 uM/ml | 1.37 | >0.17 uM/ml |  | 
5 | COc1cccc(/C=N/c2c(C)n(C)n(-c3ccccc3)c2=O)c1O | 1.13 | >0.15 uM/ml | >0.15 uM/ml | >0.15 uM/ml | 1.43 | 1.13 | 1.13 | >0.15 uM/ml | 1.43 | >0.15 uM/ml | 89.1 µM | 
6 | Cc1c(/N=C/c2ccccc2Cl)c(=O)n(-c2ccccc2)n1C | 1.42 | >0.15 uM/ml | >0.15 uM/ml | >0.15 uM/ml | 1.42 | 1.42 | 1.12 | >0.15 uM/ml | 1.42 | >0.15 uM/ml |  | 
7 | Cc1c(/N=C/c2ccc(O)cc2)c(=O)n(-c2ccccc2)n1C | 1.69 | >0.16 uM/ml | >0.16 uM/ml | >0.16 uM/ml | 1.39 | 1.39 | 1.39 | >0.16 uM/ml | 1.39 | >0.16 uM/ml |  | 
8 | COc1ccccc1/C=N/c1c(C)n(C)n(-c2ccccc2)c1=O | 1.41 | >0.16 uM/ml | >0.16 uM/ml | >0.16 uM/ml | 1.41 | 1.41 | 1.41 | >0.16 uM/ml | 1.41 | >0.16 uM/ml |  | 70.8 µM
9 | COc1cccc(/C=N/c2c(C)n(C)n(-c3ccccc3)c2=O)c1 | 1.41 | >0.16 uM/ml | 0.16 uM/ml | >0.16 uM/ml | 1.41 | 1.11 | 1.11 | >0.16 uM/ml | 1.41 | >0.16 uM/ml |  | 
10 | Cc1c(/N=C/c2cccc(Cl)c2)c(=O)n(-c2ccccc2)n1C | 1.42 | >0.15 uM/ml | >0.15 uM/ml | >0.15 uM/ml | 2.02 | 1.72 | 1.72 | >0.15 uM/ml | 2.02 | >0.15 uM/ml |  | 
11 | Cc1c(/N=C/c2ccc(Cl)cc2)c(=O)n(-c2ccccc2)n1C | 1.42 | >0.15 uM/ml | 0.15 uM/ml | >0.15 uM/ml | 1.12 | 1.12 | 1.12 | >0.15 uM/ml | 1.42 | >0.15 uM/ml |  | 
12 | OC(Cn1cncn1)(Cn1cncn1)c1ccc(F)cc1F [FLUCONAZOLE] | 2.64 |  | 0.04 uM/ml | 0.04 uM/ml |  |  |  |  | 2.64 |  |  | 
13 | COc1ccc(/C=N/c2c(C)n(C)n(-c3ccccc3)c2=O)cc1 | 1.41 | >0.16 uM/ml | >0.16 uM/ml | >0.16 uM/ml | 1.41 | 1.11 | 1.11 | >0.16 uM/ml | 1.41 | >0.16 uM/ml |  | 
14 | CCOc1cc(/C=N/c2c(C)n(C)n(-c3ccccc3)c2=O)ccc1O | 1.45 | >0.14 uM/ml | >0.14 uM/ml | >0.14 uM/ml | 1.45 | 1.15 | 1.15 | >0.14 uM/ml | 1.45 | >0.14 uM/ml |  | 
15 | Cc1c(/N=C/c2cccc(O)c2)c(=O)n(-c2ccccc2)n1C | 1.39 | >0.16 uM/ml | >0.16 uM/ml | >0.16 uM/ml | 1.39 | 1.39 | 1.09 | >0.16 uM/ml | 1.39 | >0.16 uM/ml |  | 
16 | COc1ccc(/C=N/c2c(C)n(C)n(-c3ccccc3)c2=O)cc1OC | 1.45 | >0.14 uM/ml | >0.14 uM/ml | >0.14 uM/ml | 1.45 | 1.15 | 1.15 | >0.14 uM/ml | 1.45 | >0.14 uM/ml |  | 
17 | CCn1cc(C(=O)O)c(=O)c2cc(F)c(N3CCNCC3)cc21 [NORFLOXACIN] |  | 0.019 uM/ml |  |  | 2.61 | 2.61 | 2.61 | 0.019 uM/ml |  | 0.019 uM/ml |  | 
18 | Cc1c(/N=C/c2cccc([N+](=O)[O-])c2)c(=O)n(-c2ccccc2)n1C | 1.43 | >0.15 uM/ml | >0.15 uM/ml | >0.15 uM/ml | 1.43 | 1.43 | 1.13 | >0.15 uM/ml | 1.43 | >0.15 uM/ml |  | 

From ChEMBL document CHEMBL3046140, “Design, synthesis, antimicrobial, anticancer evaluation, and QSAR studies of 4-(substituted benzylidene-amino)-1,5-dimethyl-2-phenyl-1,2-dihydropyrazol-3-ones” (Med Chem Res, 2012)
